Measured values published in ChEMBL document CHEMBL5576086, “Macrocarpal B blocks the binding between the phospholipase A2 receptor and its antibodies” (Bioorg Med Chem, 2024).
The source made the active and inactive calls. The calls are words filed in the database; no cut-off is given here. Starred links: 1 amine or outer side, 2 acyl side, 3 side chain; linkers in the order of their positions; H or OH if unused. Positions of bridges follow the written chain, without caps; N, C: chain ends. Non-standard residues stand in square brackets, D forms with d. Residues, ends and D or L forms follow the SMILES beside them. Chains are numbered I, II in the order given. Actinocin(9to1) = Cc1c2oc3c(C)ccc(C(=O)[*:1])c3nc-2c(C(=O)[*:2])c(N)c1=O; NMeV = CN[C@H](C(=O)O)C(C)C; Sar = CNCC(=O)O

How the values were obtained:
Homo sapiens [1] = species: Homo sapiens; assay: Inhibition of Anti-PLA2R IgG interaction with human recombinant PLA2 receptor at 10 uM incubated for 1 hr by ELISA analysis relative to control
Homo sapiens [2] = species: Homo sapiens; assay: Inhibition of Anti-PLA2R IgG interaction with human recombinant PLA2 receptor at 10 uM by SPR analysis relative to control
Homo sapiens [3] = species: Homo sapiens; assay: Inhibition of Anti-PLA2R IgG interaction with human recombinant PLA2 receptor by SPR analysis; settings: dose 50-80 nM
Homo sapiens [4] = species: Homo sapiens; assay: Inhibition of Anti-PLA2R IgG interaction with human recombinant PLA2 receptor assessed as maximum inhibition at 0 to 5 uM by SPR analysis relative to control; settings: dose 0-5 µM
[5] = biological target: Secretory phospholipase A2 receptor (Homo sapiens, UniProt Q13018); assay: Binding affinity to human recombinant PLA2 receptor assessed as dissociation constant by SPR analysis
Chain of Secretory phospholipase A2 receptor (Q13018 whole entry): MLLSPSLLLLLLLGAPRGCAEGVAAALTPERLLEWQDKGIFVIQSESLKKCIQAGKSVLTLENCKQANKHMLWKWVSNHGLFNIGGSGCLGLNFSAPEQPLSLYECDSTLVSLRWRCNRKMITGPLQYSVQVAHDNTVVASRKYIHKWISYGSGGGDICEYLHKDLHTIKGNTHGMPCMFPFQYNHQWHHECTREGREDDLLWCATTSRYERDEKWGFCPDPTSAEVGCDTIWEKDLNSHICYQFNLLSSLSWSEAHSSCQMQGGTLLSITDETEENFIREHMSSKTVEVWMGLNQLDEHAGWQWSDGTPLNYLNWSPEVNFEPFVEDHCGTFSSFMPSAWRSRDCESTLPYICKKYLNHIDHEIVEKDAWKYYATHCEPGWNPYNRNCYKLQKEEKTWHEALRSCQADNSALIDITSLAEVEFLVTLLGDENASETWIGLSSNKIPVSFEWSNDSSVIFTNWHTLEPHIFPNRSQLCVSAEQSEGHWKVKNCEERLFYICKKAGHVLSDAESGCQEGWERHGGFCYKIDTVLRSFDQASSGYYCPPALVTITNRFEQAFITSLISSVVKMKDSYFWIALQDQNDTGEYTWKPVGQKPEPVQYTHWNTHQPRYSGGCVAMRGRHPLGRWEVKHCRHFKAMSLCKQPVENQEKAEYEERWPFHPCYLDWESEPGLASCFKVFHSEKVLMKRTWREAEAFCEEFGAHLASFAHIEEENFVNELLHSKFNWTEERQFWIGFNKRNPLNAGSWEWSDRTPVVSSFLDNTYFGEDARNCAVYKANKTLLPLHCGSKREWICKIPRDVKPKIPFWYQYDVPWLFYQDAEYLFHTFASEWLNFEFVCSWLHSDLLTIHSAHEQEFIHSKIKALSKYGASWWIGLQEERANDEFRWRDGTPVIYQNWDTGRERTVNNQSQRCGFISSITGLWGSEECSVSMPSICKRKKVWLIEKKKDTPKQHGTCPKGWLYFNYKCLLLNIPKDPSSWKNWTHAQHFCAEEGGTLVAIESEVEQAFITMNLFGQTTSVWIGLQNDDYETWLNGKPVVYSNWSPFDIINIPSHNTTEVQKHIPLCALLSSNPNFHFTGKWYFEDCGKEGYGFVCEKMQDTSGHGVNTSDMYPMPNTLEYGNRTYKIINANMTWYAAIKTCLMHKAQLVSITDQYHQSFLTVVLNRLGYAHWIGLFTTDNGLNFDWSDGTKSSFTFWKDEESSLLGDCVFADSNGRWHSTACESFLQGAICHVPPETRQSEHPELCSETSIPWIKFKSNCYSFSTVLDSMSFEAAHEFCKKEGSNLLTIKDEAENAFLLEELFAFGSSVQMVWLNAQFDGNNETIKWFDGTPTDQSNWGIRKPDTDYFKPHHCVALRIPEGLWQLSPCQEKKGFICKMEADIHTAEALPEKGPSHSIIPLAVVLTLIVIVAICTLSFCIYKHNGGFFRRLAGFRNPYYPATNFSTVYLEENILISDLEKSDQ

Homo sapiens [6] = species: Homo sapiens; assay: Binding affinity to human Anti-PLA2R IgG at 1 to 500 uM by SPR analysis; settings: dose 1-500 µM
Podocyte [7] = assay: Reversal of membranous nephropathy-patient derived 5% plasma induced cytotoxicity against human Podocytes assessed as cell viability recovery by measuring optical density at 0.2 uM measured at 48 hrs by CCK-8 assay (reference value: 0.4 +/- 0.1); assay type: functional
Podocyte [8] = assay: Reversal of membranous nephropathy-patient derived 5% plasma induced cytotoxicity against human Podocytes assessed as cell viability recovery by measuring optical density at 1 uM measured at 48 hrs by CCK-8 assay (reference value: 0.4 +/- 0.1); assay type: functional
Podocyte [9] = assay: Reversal of membranous nephropathy-patient derived 5% plasma induced cytotoxicity against human Podocytes assessed as cell viability recovery by measuring optical density at 5 uM measured at 48 hrs by CCK-8 assay (reference value: 0.4 +/- 0.1); assay type: functional
Podocyte [10] = assay: Reversal of membranous nephropathy-patient derived 5% plasma induced cytotoxicity against human Podocytes assessed as cell viability recovery by measuring optical density at 0.2 uM measured at 72 hrs by CCK-8 assay (reference value: 0.3 +/- 0.05); assay type: functional
Podocyte [11] = assay: Reversal of membranous nephropathy-patient derived 5% plasma induced cytotoxicity against human Podocytes assessed as cell viability recovery by measuring optical density at 1 uM measured at 72 hrs by CCK-8 assay (reference value: 0.3 +/- 0.05); assay type: functional
Podocyte [12] = assay: Reversal of membranous nephropathy-patient derived 5% plasma induced cytotoxicity against human Podocytes assessed as cell viability recovery by measuring optical density at 5 uM measured at 72 hrs by CCK-8 assay (reference value: 0.3 +/- 0.05); assay type: functional
Podocyte [13] = assay: Recovery of Podocin-expression in membranous nephropathy-patient derived 5% plasma induced human Podocytes by Western blot analysis; assay type: functional, cell-based; settings: dose 0.2-5 µM
Podocyte [14] = assay: Reversal of membranous nephropathy-patient derived 5% plasma induced inhibition of cell migration in human Podocytes assessed as restoration of number of migrating cells at 1 uM measured upto 24 hrs by wound healing assay (reference value: 25.3 +/- 5.1); assay type: functional
Podocytes = assay: Inhibition of Anti-PLA2R IgG binding to human recombinant PLA2 receptor in human Podocytes assessed as mean fluorescence intensity at 5 uM by immunofluorescence analysis (reference value: 8.1 +/- 1.5); assay type: cell-based

SMILES	inhibition (Homo sapiens [1])	inhibition (Homo sapiens [2])	further results
CO[C@H]1C[C@H](O[C@H]2[C@H](C)O[C@@H](O[C@@H]3/C(C)=C/C[C@@H]4C[C@@H](C[C@]5(C=C[C@H](C)[C@@H](C6CCCCC6)O5)O4)OC(=O)[C@@H]4C=C(C)[C@@H](O)[C@H]5OC/C(=C\C=C\[C@@H]3C)[C@]54O)C[C@@H]2OC)O[C@@H](C)[C@@H]1O	27.1%	12%	
CC(C)C[C@@H](c1c(O)c(C=O)c(O)c(C=O)c1O)[C@@H]1CC[C@@](C)(O)[C@@H]2[C@@H]3[C@H](CC[C@]21C)C3(C)C	34.3%	12.6%	
CC(=O)C[C@]1(O)C(=O)C2=C(OC[C@@H]2C)c2ccc3c(C)cccc3c21	28.7%	10.1%	
COc1cc(O)c2c(=O)c3cc(CC=C(C)C)c(O)c(O)c3oc2c1CC=C(C)C	51.8%	10.7%	
CC(C)=CCc1cc2c(=O)c3c(O)c(CC=C(C)C)c(O)c(CC=C(C)C)c3oc2c(O)c1O	55.4%		
Cc1c2oc3c(C)ccc(C(=O)N[C@@H]4C(=O)N[C@H](C(C)C)C(=O)N5CCC[C@H]5C(=O)N(C)CC(=O)N(C)[C@@H](C(C)C)C(=O)O[C@@H]4C)c3nc-2c(C(=O)N[C@@H]2C(=O)N[C@H](C(C)C)C(=O)N3CCC[C@H]3C(=O)N(C)CC(=O)N(C)[C@@H](C(C)C)C(=O)O[C@@H]2C)c(N)c1=O (I: T[dV]P[Sar][NMeV] / II: T[dV]P[Sar][NMeV]; ester I:1-I:C, II:1-II:C; linker I:N-II:N via Actinocin(9to1))	79.3%		
COc1c(O)c2c(=O)cc(OC)c3c4c(OC)cc(O)c5c(=O)c(OC)c6c(c(c1[C@H](C(C)=O)[C@](C)(O)C6)c23)c54	74.3%	11.9%	
CCCCCc1cc(O)c(C/C=C(\C)CCC=C(C)C)c(O)c1	32.9%	9.7%	
CC(C)=CCC[C@]1(C)C=Cc2c(O)c3c(c(CC=C(C)C)c2O1)O[C@]12C(=C[C@@H]4C[C@H]1C(C)(C)O[C@@]2(C/C=C(/C)C(=O)O)C4=O)C3=O	73.1%	13.4%	
CC(=O)O[C@H]1C[C@@H]2C(COC(=O)CC(C)C)=CO[C@@H](OC(=O)CC(C)C)[C@@H]2[C@@]12CO2	26.4%		
CC(C)=CCc1c(O)c(CC=C(C)C)c2oc3c(O)ccc(O)c3c(=O)c2c1O	49.4%	12.2%	
CC1(C)CC[C@]2(C(=O)O)CC[C@]3(COC(=O)/C=C/c4ccc(O)c(O)c4)C(=CC[C@@H]4[C@@]5(C)CC[C@H](O)C(C)(C)[C@@H]5CC[C@]43C)[C@@H]2C1	20.5%		
CC(C)C[C@H](c1c(O)c(C=O)c(O)c(C=O)c1O)[C@@]1(C)CC[C@@H]2[C@@H]1[C@H]1[C@@H](CC[C@@]2(C)O)C1(C)C [MACROCARPAL B]	41.6%	19%	inhibition (Homo sapiens [3]): Dose-Dependent Effect; Imax (Homo sapiens [4]): 30%; Kd [5]: 1470 nM; Activity (Homo sapiens [6]): inactive; OD (Podocyte [7]): 0.6; OD (Podocyte [8]): 0.7; OD (Podocyte [9]): 0.8; OD (Podocyte [10]): 0.5; OD (Podocyte [11]): 0.6; OD (Podocyte [12]): 0.6; Activity (Podocyte [13]): Dose-Dependent Effect; Activity (Podocyte [14]): 50.7; Flu intensity (Podocytes): 2.1
CC(C)C[C@@H](c1c(O)c(C=O)c(O)c(C=O)c1O)[C@@]1(C)CC[C@H]2C1=C[C@H](C(C)(C)O)CC[C@H]2C	21.2%	11.3%	
CC(=O)O[C@H]1C[C@]2(O)C(COC(=O)C(OC(=O)CC(C)C)C(C)C)=CO[C@@H](OC(=O)CC(C)C)[C@@H]2[C@@]12CO2 (some centres undefined)	30.2%	7.7%	
